In patent US20080234336A1, “Synergistic Imazalil Combinations” (priority 2005, published 2008):

How the values were obtained:
Type in all cases: cell-based
[1] = tested on: Geotrichum candidum (Gca); experiment: Poison plate assay (Experiment 2), fungal growth and Limpel synergy
Protocol: (§1) Name of the primary compound: imazalil (I) Formulations: (% is in w/v)
• Stock solution: 2000 ppm (w/w) • Solvent for dilutions: demineralised water • Fungal species: post harvest and seed pathogens: Geotrichum candidum (Gca) and Penicillium digitatum (Pdi) Calculated amounts of dilutions were poured into multi-well plates. Culture medium was added aseptically and uniform distribution was obtained by shaking. […] The expected activity E of a combination of active ingredients was calculated by using Limpel's formula (Richter, D. L; Pesticide Science 1987, 19: 309-315): • E=A+B−(A*B)/100 wherein A and B express the activities obtained for each of the active ingredients when applied alone. A synergistic effect is acknowledged if the measured activity M exceeds the calculated (expected) activity E (synergy indicated by figures in bold).

[2] = tested on: Penicillium digitatum (Pdi); experiment: as above; settings: Table 6, Pdi; imazalil 0.02 ppm, combinations 0.02 + 0.02 ppm; conc 0 for carpropamid and fosetyl-Al alone
Protocol: as §1
• Stock solution: 2000 ppm (w/w) • Solvent for dilutions: demineralised water • Fungal species: post harvest and seed pathogens: Geotrichum candidum (Gca) and Penicillium digitatum (Pdi) Calculated amounts of dilutions were poured into multi-well plates. Culture medium was added aseptically and uniform distribution was obtained by shaking. The plates were inoculated with the test fungi and incubated during a period long enough to allow complete outgrowth of controls. • Test concentrations: noted in ppm versus growth medium (w/v): see tables • Replicates: 4 • Culture medium: PDA (Potato Dextrose Agar) • Culture conditions: 22° C. and 60% relative humidity • Inoculation: with a small piece of agar from the margin of an actively growing culture or a suspension of spores, mycelium or culture • Evaluation date: at complete outgrowth of control • Synergy calculation: Diameter of fungal growth (in mm) was measured, mean radial growth (X) and measured activity (M) were calculated. The expected activity E of a combination of active ingredients was calculated by using Limpel's formula (Richter, D. L; Pesticide Science 1987, 19: 309-315): • E=A+B−(A*B)/100 wherein A and B express the activities obtained for each of the active ingredients when applied alone. A synergistic effect is acknowledged if the measured activity M exceeds the calculated (expected) activity E (synergy indicated by figures in bold).

Rhizoctonia solani = experiment: Poison plate assay (Experiment 1), MIC and Synergy Index; settings: PDA, 27° C., evaluation after two days, ppm total active ingredient; for MIC: 48 h, read-out: MIC-values (minimum inhibitory concentration) in ppm
From the text: (§2) Name of the primary compound: • imazalil (I) Name of the combination partners: • boscalid (II-a) • cyproconazole (II-b) • pyraclostrobin (II-c) • triflumizole (II-d) Stock solution: 1000 ppm in DMSO
(§3) • Concentrations of total active ingredient in the combinations: a series of concentrations increasing with steps of 1/3: 0.21-0.28-0.38-0.50-0.67-0.89-1.19-1.58-2.11-2.81-3.75-5.00-6.67-8.90-11.87-15.82-21.09-28.13-37.50-50.00 ppm • Culture medium: Potato Dextrose Agiar (PDA): 4 g potato infusion, 20 g bacto dextrose and 15 g bacto agar in 1 liter deionised water • Experimental set up: 24-well plates
(§4) • Inoculum: a spore/mycelium suspension (2 μl) or a piece of agar from the margin of an actively growing colony • Culture conditions: 27° C., 70% relative humidity, dark. • Evaluation: Evaluation after two days. Synergism between component (I) and one of the components (II) was determined by a commonly used and accepted method described by Kull F. C. et al. in Applied Microbiology, 9, 538-541 (1961) using the Synergy Index, which is calculated as follows for two compounds A and B: […]
(§5) wherein: • QA is the concentration of compound A in ppm, acting alone, which produced an end point (e.g. MIC), • Qa is the concentration of compound A in ppm, in the mixture, which produced an end point (e.g. MIC), • QB is the concentration of compound B in ppm, acting alone, which produced an end point (e.g. MIC), • Qb is the concentration of compound B in ppm, in the mixture, which produced an end point (e.g. MIC). When the Synergy Index is greater than 1.0, antagonism is indicated.

Gloeosporium album = experiment: as above; settings: PDA, 27° C., evaluation after two days, ppm total active ingredient; for MIC: Phlyctema vagabunda, 48 h, read-out: MIC-values (minimum inhibitory concentration) in ppm
From the text: as §2, §3, §4, §5

Colletotrichum musae = experiment: as above; settings: PDA, 27° C., evaluation after two days, ppm total active ingredient; for MIC: 48 h, read-out: MIC-values (minimum inhibitory concentration) in ppm
From the text: as §2, §3, §4, §5

Geotrichum candidum = experiment: as above; settings: 48 h, PDA, 27° C., evaluation after two days, ppm total active ingredient, read-out: MIC-values (minimum inhibitory concentration) in ppm
From the text: as §2, §3, §4, §5

[3] = Table 7, Gca, conc 60 μM (tetraconazole 6 μM), combinations 60 + 60, (I) + (II-i) 60 + 6
[4] = Table 7, Gca, conc 70 μM (tetraconazole 7 μM), combinations 70 + 70, (I) + (II-i) 70 + 7
[5] = Table 5, Gca, conc 20 ppm each (combinations 20 + 20)
[6] = Table 5, Gca, conc 25 ppm each (combinations 25/25)

## CSC(=O)c1cccc2nnsc12 [acibenzolar-S-me (II-e), benzo[1,2,3]-thiadiazole-7-carbothioic acid S-methyl ester]
[1]; [3]
  M = measured activity: 7
  X = mean fungal growth: 14 mm
[1]; [4]
  M = measured activity: 3
  X = mean fungal growth: 15 mm

## CCC1(C(=O)NC(C)c2ccc(Cl)cc2)C(C)C1(Cl)Cl (stereo not drawn) [carpropamid (II-f), 2,2-dichloro-N-[1-(4-chlorophenyl)ethyl]-1-ethyl-3-methyl-cyclopropanecarboxamide]
[2]
  M = measured activity: 0
  X = mean fungal growth: 15 mm

## CC(C1CC1)C(O)(Cn1cncn1)c1ccc(Cl)cc1 (stereo not drawn) [cyproconazole, α-(4-chloro-phenyl)-α-(1-cyclopropyl-ethyl)-1H-1,2,4-triazole-1-ethanol]
Rhizoctonia solani
  MIC: 11.9 µg/mL
Gloeosporium album
  MIC: 2.81 µg/mL
Colletotrichum musae
  MIC: 66.7 µg/mL
Geotrichum candidum
  MIC: 6.67 µg/mL

## C=CCOC(Cn1ccnc1)c1ccc(Cl)cc1Cl (stereo not drawn) [imazalil]
[2]
  M = measured activity: 88
  X = mean fungal growth: 2 mm
[1]; [5]
  M = measured activity: 38
  X = mean fungal growth: 9 mm
[1]; [6]
  M = measured activity: 50
  X = mean fungal growth: 7 mm
[1]; [3]
  M = measured activity: 7
  X = mean fungal growth: 14 mm
[1]; [4]
  M = measured activity: 68
  X = mean fungal growth: 5 mm
Rhizoctonia solani
  MIC: 50 µg/mL
Gloeosporium album
  MIC: 1.58 µg/mL
Colletotrichum musae
  MIC: 8.9 µg/mL
Geotrichum candidum
  MIC: 66.7 µg/mL

## COC(=O)N(OC)c1ccccc1COc1ccn(-c2ccc(Cl)cc2)n1 [pyraclostrobin, methyl N-(2-[1-(4-chlorophenyl)-1H-pyrazol-3-yloxymethyl]phenyl](N-methoxy)carbamate]
Rhizoctonia solani
  MIC: 66.7 µg/mL
Gloeosporium album
  MIC: 66.7 µg/mL
Colletotrichum musae
  MIC: 66.7 µg/mL

## FC(F)C(F)(F)OCC(Cn1cncn1)c1ccc(Cl)cc1Cl (stereo not drawn) [tetraconazole (II-i), 1-[2-(2,4-dichloro-phenyl)-3-(1,1,2,2-tetrafluoroethoxy)propyl]-1H-1,2,4-triazole]
[1]; [5]
  M = measured activity: 36
  X = mean fungal growth: 9 mm
[1]; [6]
  M = measured activity: 45
  X = mean fungal growth: 8 mm
[1]; [3]
  M = measured activity: 15
  X = mean fungal growth: 13 mm
[1]; [4]
  M = measured activity: 3
  X = mean fungal growth: 15 mm

## CCC(C)(NC(=O)c1cc(Cl)c(C)c(Cl)c1)C(=O)CCl (stereo not drawn) [zoxamide (II-j), 3,5-dichloro-N-(3-chloro-1-ethyl-1-methyl-2-oxopropyl)-4-methyl-benzamide]
[1]; [3]
  M = measured activity: 0
  X = mean fungal growth: 15 mm
[1]; [4]
  M = measured activity: 2
  X = mean fungal growth: 15 mm

## (E)-4-chloro-ααα-trifluoro-N-(1-imidazol-1-yl-2-propoxyethylidene)-o-toluidine [triflumizole]
Rhizoctonia solani
  MIC-values (minimum inhibitory concentration) in ppm: 37.50 ppm
Gloeosporium album
  MIC-values (minimum inhibitory concentration) in ppm: 6.67 ppm
Colletotrichum musae
  MIC-values (minimum inhibitory concentration) in ppm: 28.13 ppm
